For three molecules, Km results are on record in paper PMC12188165, “Engineering of the Thiamine Diphosphate‐Dependent JanthE for the Synthesis of Tertiary Alcohols” (Chemistry (Weinheim an Der Bergstrasse, Germany), 2025).

The target of one data set is T1, JanthE (Janthinobacterium sp. HH01, UniProt A0AAT8XUE4, K568S, form not given).
T1 construct: purified enzyme; expression and tag details only in supplement
Description: initial-rate kinetics, formation of product […]. Type of data set: biochemical. Conditions: 1 mM Mg2+, 0.05 mM ThDP, 200 mM NaCl, 100 mM sodium phosphate pH 8, read-out: K567S.

Substrate in data set [1]: CC(=O)COc1ccccc1
Description: purified protein. Format: biochemical, Janthinobacterium sp. HH01. Conditions: 50 mM 2-oxobutanoate co-substrate, 1 mM Mg2+, 0.05 mM ThDP, 200 mM NaCl, 100 mM sodium phosphate pH 8.

Substrate in data set [2]: CCC(=O)C(=O)O
Briefly: purified protein. Format: biochemical, Janthinobacterium sp. HH01. Conditions: 20 mM phenoxy-2-propanone co-substrate, 1 mM Mg2+, 0.05 mM ThDP, 200 mM NaCl, 100 mM sodium phosphate pH 8.

Where two headings read alike, the source gives them in different places.

T1 sequence (A0AAT8XUE4 entry or part of it K568S, form open): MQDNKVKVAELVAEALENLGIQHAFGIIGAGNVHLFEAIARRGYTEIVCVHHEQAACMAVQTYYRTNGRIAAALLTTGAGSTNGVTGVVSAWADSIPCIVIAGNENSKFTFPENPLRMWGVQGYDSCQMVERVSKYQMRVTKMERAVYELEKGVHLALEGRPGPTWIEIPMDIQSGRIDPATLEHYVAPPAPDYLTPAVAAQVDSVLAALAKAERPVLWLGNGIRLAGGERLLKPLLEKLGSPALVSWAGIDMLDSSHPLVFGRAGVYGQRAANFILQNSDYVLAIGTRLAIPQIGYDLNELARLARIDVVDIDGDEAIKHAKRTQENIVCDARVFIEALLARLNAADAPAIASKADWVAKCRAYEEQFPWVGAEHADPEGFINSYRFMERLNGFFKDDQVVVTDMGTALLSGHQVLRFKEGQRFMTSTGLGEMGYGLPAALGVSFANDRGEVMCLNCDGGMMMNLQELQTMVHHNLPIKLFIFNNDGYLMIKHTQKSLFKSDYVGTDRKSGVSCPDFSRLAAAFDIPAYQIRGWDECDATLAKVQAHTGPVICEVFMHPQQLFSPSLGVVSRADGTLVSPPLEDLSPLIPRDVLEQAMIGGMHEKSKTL

`CCC(=O)C(=O)O` [compound 2, 2-oxobutanoate]: the Km on JanthE (20 mM phenoxy-2-propanone co-substrate) amounted to 0.74 ± 0.31 mM. Take `CC(=O)COc1ccccc1` [compound 6, phenoxy-2-propanone]: at JanthE (50 mM 2-oxobutanoate co-substrate), the Km stood at 31.8 ± 6 mM.

B1: JanthE (Janthinobacterium sp. HH01) (protein)
chain: MQDNKVKVAELVAEALENLGIQHAFGIIGAGNVHLFEAIARRGYTEIVCVHHEQAACMAVQTYYRTNGRIAAALLTTGAGSTNGVTGVVSAWADSIPCIVIAGNENSKFTFPENPLRMWGVQGYDSCQMVERVSKYQMRVTKMERAVYELEKGVHLALEGRPGPTWIEIPMDIQSGRIDPATLEHYVAPPAPDYLTPAVAAQVDSVLAALAKAERPVLWLGNGIRLAGGERLLKPLLEKLGSPALVSWAGIDMLDSSHPLVFGRAGVYGQRAANFILQNSDYVLAIGTRLAIPQIGYDLNELARLARIDVVDIDGDEAIKHAKRTQENIVCDARVFIEALLARLNAADAPAIASKADWVAKCRAYEEQFPWVGAEHADPEGFINSYRFMERLNGFFKDDQVVVTDMGTALLSGHQVLRFKEGQRFMTSTGLGEMGYGLPAALGVSFANDRGEVMCLNCDGGMMMNLQELQTMVHHNLPIKLFIFNNDGYLMIKHTQKSLFKSDYVGTDRKSGVSCPDFSRLAAAFDIPAYQIRGWDECDATLAKVQAHTGPVICEVFMHPQQLFSPKLGVVSRADGTLVSPPLEDLSPLIPRDVLEQAMIGGMHEKSKTL
notes: purified enzyme; expression and tag details only in supplement
Take B1: the values for the Km in the data set “purified protein [1]” and in “purified protein [2]” were 24.6 ± 3.8 mM and 0.92 ± 0.26 mM, respectively.
